Among the data in PubChem BioAssay AID1963837 (Molecular Pharmacology Branch, DTP, NCI, 2024) are IC50 values, retold here.

As a reminder, the IC50 is the concentration that inhibits the measured activity by half.

The first test deals with 843126-344-R-J1-PDC complex spheroid viability. The experiment in a line: Anticancer human tumor 843126-344-R-J1-PDC patient-derived melanoma cell line growth inhibition [POLQ]. As to conditions: curve of first compound; second compound 0.0316 µM. Put shortly: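 Three-cell-type spheroids modelling solid tumor plus stroma served as the readout system; POL inhibitors were tested individually and in combination, concentration ranges set by clinical Cmax where known.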
`C#Cc1c(F)ccc2cc(O)cc(-c3ncc4c(N5CC6CCC(C5)N6)nc(OCC56CCCN5CC(F)C6)nc4c3F)c12` (stereo unspecified) + Nc1ccc(C#CCN(C(=O)Cc2ncc(C(F)(F)F)cc2C(F)(F)F)c2ccc(F)cc2)nn1: the IC50 was greater than 10 µM.
On the same count and under the same terms, the value for `CC1COCCN1c1cc(C2(O)CC3CCC(C2)O3)c2cnn(-c3ccn[nH]3)c2n1` (stereo unspecified) + Nc1ccc(C#CCN(C(=O)Cc2ncc(C(F)(F)F)cc2C(F)(F)F)c2ccc(F)cc2)nn1 was 0.39 µM; that for `CCc1cc2c(N3CCc4c(cc(Cn5ccnc5)cc4-c4cn(C)nc4C(F)(F)F)C3=O)cc(C)nc2c(OC)n1` + Nc1ccc(C#CCN(C(=O)Cc2ncc(C(F)(F)F)cc2C(F)(F)F)c2ccc(F)cc2)nn1 was greater than 10 µM.
On the same count and under the same terms, then `COc1cc2cc(C(=O)CCC(=O)O)sc2cc1OC` + Nc1ccc(C#CCN(C(=O)Cc2ncc(C(F)(F)F)cc2C(F)(F)F)c2ccc(F)cc2)nn1, with greater than 10 µM; and `O=C(Nc1ccc(O)c(NS(=O)(=O)c2ccc(F)cc2)c1)c1ccc(-c2ccccc2)cc1` + Nc1ccc(C#CCN(C(=O)Cc2ncc(C(F)(F)F)cc2C(F)(F)F)c2ccc(F)cc2)nn1, with greater than 10 µM.

The same test, now with this note: curve of first compound; second compound 0.1 µM.
Take `C#Cc1c(F)ccc2cc(O)cc(-c3ncc4c(N5CC6CCC(C5)N6)nc(OCC56CCCN5CC(F)C6)nc4c3F)c12` (stereo unspecified) + Nc1ccc(C#CCN(C(=O)Cc2ncc(C(F)(F)F)cc2C(F)(F)F)c2ccc(F)cc2)nn1: the IC50 is greater than 10 µM.
Same read-out and setting: the value for `CC1COCCN1c1cc(C2(O)CC3CCC(C2)O3)c2cnn(-c3ccn[nH]3)c2n1` (stereo unspecified) + Nc1ccc(C#CCN(C(=O)Cc2ncc(C(F)(F)F)cc2C(F)(F)F)c2ccc(F)cc2)nn1 was 0.435 µM; that for `CCc1cc2c(N3CCc4c(cc(Cn5ccnc5)cc4-c4cn(C)nc4C(F)(F)F)C3=O)cc(C)nc2c(OC)n1` + Nc1ccc(C#CCN(C(=O)Cc2ncc(C(F)(F)F)cc2C(F)(F)F)c2ccc(F)cc2)nn1 was greater than 10 µM; that for `COc1cc2cc(C(=O)CCC(=O)O)sc2cc1OC` + Nc1ccc(C#CCN(C(=O)Cc2ncc(C(F)(F)F)cc2C(F)(F)F)c2ccc(F)cc2)nn1 was greater than 10 µM.
The same measure, in the same setting: then `O=C(Nc1ccc(O)c(NS(=O)(=O)c2ccc(F)cc2)c1)c1ccc(-c2ccccc2)cc1` + Nc1ccc(C#CCN(C(=O)Cc2ncc(C(F)(F)F)cc2C(F)(F)F)c2ccc(F)cc2)nn1, with greater than 10 µM.

The same test, now with this note: curve of first compound; second compound 0.316 µM.
With `C#Cc1c(F)ccc2cc(O)cc(-c3ncc4c(N5CC6CCC(C5)N6)nc(OCC56CCCN5CC(F)C6)nc4c3F)c12` (stereo unspecified) + Nc1ccc(C#CCN(C(=O)Cc2ncc(C(F)(F)F)cc2C(F)(F)F)c2ccc(F)cc2)nn1, the IC50 was greater than 10 µM.
Consider `CC1COCCN1c1cc(C2(O)CC3CCC(C2)O3)c2cnn(-c3ccn[nH]3)c2n1` (stereo unspecified) + Nc1ccc(C#CCN(C(=O)Cc2ncc(C(F)(F)F)cc2C(F)(F)F)c2ccc(F)cc2)nn1, for which the IC50 turned out to be 0.369 µM.
Still for that read-out and setting: the value for `CCc1cc2c(N3CCc4c(cc(Cn5ccnc5)cc4-c4cn(C)nc4C(F)(F)F)C3=O)cc(C)nc2c(OC)n1` + Nc1ccc(C#CCN(C(=O)Cc2ncc(C(F)(F)F)cc2C(F)(F)F)c2ccc(F)cc2)nn1 was greater than 10 µM.
As to `COc1cc2cc(C(=O)CCC(=O)O)sc2cc1OC` + Nc1ccc(C#CCN(C(=O)Cc2ncc(C(F)(F)F)cc2C(F)(F)F)c2ccc(F)cc2)nn1, the IC50 is greater than 10 µM.
The same measure, in the same setting: the value for `O=C(Nc1ccc(O)c(NS(=O)(=O)c2ccc(F)cc2)c1)c1ccc(-c2ccccc2)cc1` + Nc1ccc(C#CCN(C(=O)Cc2ncc(C(F)(F)F)cc2C(F)(F)F)c2ccc(F)cc2)nn1 was greater than 10 µM.

Staying with this test, now noted: curve of first compound; second compound 1 µM.
For the molecule `C#Cc1c(F)ccc2cc(O)cc(-c3ncc4c(N5CC6CCC(C5)N6)nc(OCC56CCCN5CC(F)C6)nc4c3F)c12` (stereo unspecified) + Nc1ccc(C#CCN(C(=O)Cc2ncc(C(F)(F)F)cc2C(F)(F)F)c2ccc(F)cc2)nn1, the IC50 is greater than 10 µM.
Same read-out and setting: the value for `CC1COCCN1c1cc(C2(O)CC3CCC(C2)O3)c2cnn(-c3ccn[nH]3)c2n1` (stereo unspecified) + Nc1ccc(C#CCN(C(=O)Cc2ncc(C(F)(F)F)cc2C(F)(F)F)c2ccc(F)cc2)nn1 was 0.312 µM; that for `CCc1cc2c(N3CCc4c(cc(Cn5ccnc5)cc4-c4cn(C)nc4C(F)(F)F)C3=O)cc(C)nc2c(OC)n1` + Nc1ccc(C#CCN(C(=O)Cc2ncc(C(F)(F)F)cc2C(F)(F)F)c2ccc(F)cc2)nn1 was greater than 10 µM.
As to `COc1cc2cc(C(=O)CCC(=O)O)sc2cc1OC` + Nc1ccc(C#CCN(C(=O)Cc2ncc(C(F)(F)F)cc2C(F)(F)F)c2ccc(F)cc2)nn1, the IC50 was greater than 10 µM.
In the case of `O=C(Nc1ccc(O)c(NS(=O)(=O)c2ccc(F)cc2)c1)c1ccc(-c2ccccc2)cc1` + Nc1ccc(C#CCN(C(=O)Cc2ncc(C(F)(F)F)cc2C(F)(F)F)c2ccc(F)cc2)nn1, the IC50 is greater than 10 µM.

The test is the same for the next values; noted with them: curve of first compound; second compound 3.16 µM.
With `C#Cc1c(F)ccc2cc(O)cc(-c3ncc4c(N5CC6CCC(C5)N6)nc(OCC56CCCN5CC(F)C6)nc4c3F)c12` (stereo unspecified) + Nc1ccc(C#CCN(C(=O)Cc2ncc(C(F)(F)F)cc2C(F)(F)F)c2ccc(F)cc2)nn1, the IC50 is greater than 10 µM.
Same read-out and setting: then `CC1COCCN1c1cc(C2(O)CC3CCC(C2)O3)c2cnn(-c3ccn[nH]3)c2n1` (stereo unspecified) + Nc1ccc(C#CCN(C(=O)Cc2ncc(C(F)(F)F)cc2C(F)(F)F)c2ccc(F)cc2)nn1, with 0.344 µM; and `CCc1cc2c(N3CCc4c(cc(Cn5ccnc5)cc4-c4cn(C)nc4C(F)(F)F)C3=O)cc(C)nc2c(OC)n1` + Nc1ccc(C#CCN(C(=O)Cc2ncc(C(F)(F)F)cc2C(F)(F)F)c2ccc(F)cc2)nn1, with greater than 10 µM; and `COc1cc2cc(C(=O)CCC(=O)O)sc2cc1OC` + Nc1ccc(C#CCN(C(=O)Cc2ncc(C(F)(F)F)cc2C(F)(F)F)c2ccc(F)cc2)nn1, with greater than 10 µM.
Same read-out and setting: then `O=C(Nc1ccc(O)c(NS(=O)(=O)c2ccc(F)cc2)c1)c1ccc(-c2ccccc2)cc1` + Nc1ccc(C#CCN(C(=O)Cc2ncc(C(F)(F)F)cc2C(F)(F)F)c2ccc(F)cc2)nn1, with greater than 10 µM.

The test is the same for the next values; noted with them: curve of first compound; second compound 10 µM.
For the molecule `C#Cc1c(F)ccc2cc(O)cc(-c3ncc4c(N5CC6CCC(C5)N6)nc(OCC56CCCN5CC(F)C6)nc4c3F)c12` (stereo unspecified) + Nc1ccc(C#CCN(C(=O)Cc2ncc(C(F)(F)F)cc2C(F)(F)F)c2ccc(F)cc2)nn1, the concentration for half-maximal inhibition (IC50) was greater than 10 µM.
